Assay results taken from PubChem BioAssay (NCI).
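Interpolation was linear, between the two tested concentrations surrounding the appropriate level; five concentrations were tested over 48 hours in 96-well plates. At the GI50, growth is halved. TGI: total growth inhibition.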

Key:
Experiment in all cases: DTP human tumour cell line panel, 48 h
SF-539 CNS = system: SF-539 CNS
MOLT-4 leukemia = system: MOLT-4 leukemia
HOP-62 NSCLC = system: HOP-62 NSCLC
HCC-2998 colon = system: HCC-2998 colon
IGROV1 ovarian = system: IGROV1 ovarian
786-0 renal = system: 786-0 renal
RPMI-8226 leukemia = system: RPMI-8226 leukemia
MDA-MB-231 breast = system: MDA-MB-231 breast
SK-OV-3 ovarian = system: SK-OV-3 ovarian
NCI-H522 lung = system: NCI-H522 lung
HS 578T breast = system: HS 578T breast
SF-268 CNS = system: SF-268 CNS
SNB-75 CNS = system: SNB-75 CNS
BT-549 breast = system: BT-549 breast
UO-31 renal = system: UO-31 renal
HT29 colon = system: HT29 colon
HL-60(TB) leukemia = system: HL-60(TB) leukemia
U251 CNS = system: U251 CNS
SF-295 CNS = system: SF-295 CNS
SK-MEL-2 melanoma = system: SK-MEL-2 melanoma
SN12C renal = system: SN12C renal
MALME-3M melanoma = system: MALME-3M melanoma
EKVX NSCLC = system: EKVX NSCLC
UACC-257 melanoma = system: UACC-257 melanoma
SR leukemia = system: SR leukemia
HOP-92 NSCLC = system: HOP-92 NSCLC
NCI-H226 lung = system: NCI-H226 lung
MDA-MB-435 = system: MDA-MB-435
SW-620 colon = system: SW-620 colon

Molecule O=C1NC(=S)S/C1=C\c1cn(-c2ccccc2)nc1-c1ccc([N+](=O)[O-])cc1 has a GI50 (SF-539 CNS) of 3.45 µM, a TGI (SF-539 CNS) of 13.8 µM and a GI50 (MOLT-4 leukemia) of 2890 nM. For the same molecule, the TGI (MOLT-4 leukemia) was over 100 µM, the GI50 (HOP-62 NSCLC) was 3.45 µM and the TGI (HOP-62 NSCLC) was 16.5 µM. The GI50 (HCC-2998 colon) was 2880 nM, the TGI (HCC-2998 colon) was 12.6 µM and the GI50 (IGROV1 ovarian) was 3.4 µM. For the same molecule, the TGI (IGROV1 ovarian) was 14.8 µM, the GI50 (786-0 renal) was 3.49 µM and the TGI (786-0 renal) was 13.5 µM. For the same molecule, the GI50 (RPMI-8226 leukemia) was 2660 nM, the TGI (RPMI-8226 leukemia) was over 100 µM and the GI50 (MDA-MB-231 breast) was 4.17 µM. For the same molecule, the TGI (MDA-MB-231 breast) was 16.9 µM, the GI50 (SK-OV-3 ovarian) was 3.33 µM and the TGI (SK-OV-3 ovarian) was 12.9 µM. It also gave a GI50 (NCI-H522 lung) of 2390 nM, a TGI (NCI-H522 lung) of 18.7 µM and a GI50 (HS 578T breast) of 2560 nM. The TGI (HS 578T breast) was 9.27 µM, the GI50 (SF-268 CNS) was 3.01 µM and the TGI (SF-268 CNS) was over 100 µM. The GI50 (SNB-75 CNS) was 1830 nM, the TGI (SNB-75 CNS) was 11.5 µM and the GI50 (BT-549 breast) was 2150 nM. For the same molecule, the TGI (BT-549 breast) was 6.51 µM, the GI50 (UO-31 renal) was 2500 nM and the TGI (UO-31 renal) was 11.9 µM. It also gave a GI50 (HT29 colon) of 3.86 µM, a TGI (HT29 colon) of 89.5 µM and a GI50 (HL-60(TB) leukemia) of 2780 nM. It also gave a TGI (HL-60(TB) leukemia) of 21.2 µM, a GI50 (U251 CNS) of 2940 nM and a TGI (U251 CNS) of 11 µM. It also gave a GI50 (SF-295 CNS) of 2390 nM, a TGI (SF-295 CNS) of 11.2 µM and a GI50 (SK-MEL-2 melanoma) of 2420 nM. The TGI (SK-MEL-2 melanoma) was 7.46 µM, the GI50 (SN12C renal) was 2530 nM and the TGI (SN12C renal) was 15.2 µM. For the same molecule, the GI50 (MALME-3M melanoma) was 1960 nM, the TGI (MALME-3M melanoma) was 6.4 µM and the GI50 (EKVX NSCLC) was 2600 nM. It also gave a TGI (EKVX NSCLC) of 10.4 µM, a GI50 (UACC-257 melanoma) of 2430 nM and a TGI (UACC-257 melanoma) of 7.67 µM. For the same molecule, the GI50 (SR leukemia) was 4.3 µM, the TGI (SR leukemia) was over 100 µM and the GI50 (HOP-92 NSCLC) was 2730 nM. The TGI (HOP-92 NSCLC) was 8.64 µM, the GI50 (NCI-H226 lung) was 2490 nM and the TGI (NCI-H226 lung) was 12.1 µM. It also gave a GI50 (MDA-MB-435) of 2860 nM, a TGI (MDA-MB-435) of 11.7 µM and a GI50 (SW-620 colon) of 3.27 µM. It also gave a TGI (SW-620 colon) of over 100 µM.
